According to PubChem BioAssay AID1996:
In brackets after ≈: the same amount, converted by molar mass.

Conditions: buffer; pH 7.4; 200.0 µM

SMILES | solubility kinetic
COc1ccc(Cl)cc1N1C(=O)CC(Sc2ccccc2N)C1=O (configuration not stated) | < 0.4 µg/mL
Cc1cc(C)nc(NC(=O)Cc2ccc(Br)cc2)n1 | > 48 µg/mL
CCN(CC)S(=O)(=O)c1ccc(O)c(C(=O)OCC(=O)NC23CC4CC(CC(C4)C2)C3)c1 | 25.5 µg/mL (≈ 54.9 µM)
CCN(C(=O)COC(=O)c1ccc(Cl)c(S(=O)(=O)N2CCCCC2)c1)C1CCS(=O)(=O)C1 (configuration not stated) | 56.6 µg/mL (≈ 112 µM)
O=[N+]([O-])c1cccnc1Oc1ccccc1F | > 35.1 µg/mL
COc1ccccc1NC(=O)COC(=O)C1CC2CCCC(C1)C2=O (configuration not stated) | > 51.8 µg/mL
Cc1cc(SCC(=O)Nc2ccc3[nH]c(=O)[nH]c3c2)nc2ccccc12 | 2.9 µg/mL (≈ 7.96 µM)
CC(C)c1cccc(C(C)C)c1NC(=O)CN1CCCC1 | > 43.3 µg/mL
Cc1snc(SCc2c(F)cccc2Cl)c1C#N | < 0.3 µg/mL
Cc1noc(C)c1C(=O)Nc1cccc2ncccc12 | > 40.1 µg/mL
COc1ccc(S(=O)(=O)Nc2ncccn2)cc1 | 23.1 µg/mL (≈ 87.1 µM)
CCOC(=O)COn1c(=O)c(-c2ccc(OC)cc2)[n+]([O-])c2ccccc21 | 42 µg/mL (≈ 113 µM)
O=C(NCc1cccnc1)C(=O)C1C(=O)Nc2ccccc21 (configuration not stated) | 42.5 µg/mL (≈ 144 µM)
CC1CCCN(C2(O)C(=O)Nc3ccc(Cl)cc32)C1 (configuration not stated) | > 42.1 µg/mL
CCc1nc2ccccc2c(C(=O)OCC(=O)Nc2ccc(NC(C)=O)cc2)c1C | 12.1 µg/mL (≈ 29.8 µM)
COCCn1c(C)cc(C(=O)COc2cccnc2[N+](=O)[O-])c1C | 49.7 µg/mL (≈ 149 µM)
CCN(CC)S(=O)(=O)c1ccc(/C=C/C(=O)OCC(=O)NCc2ccco2)cc1 | 17.3 µg/mL (≈ 41.1 µM)
Cc1cccc(C(=O)OC(C)CN2CCCC2)c1.Cl (configuration not stated) | > 42.6 µg/mL
Cc1ccccc1C(=O)Nc1ccccc1C(=O)N1CCC(C)CC1 | 32.9 µg/mL (≈ 97.8 µM)
CC(=O)N1c2ccc(C)cc2C(c2ccccc2)CC1C (configuration not stated) | 40.6 µg/mL (≈ 145 µM)
O=C(Cn1c(=O)oc2ccccc21)N1CCCC1 | > 36.9 µg/mL

SMILES | solubility kinetic
CC(C)(C)Nc1nc(-c2ccccn2)nc2ccccc12 | > 41.8 µg/mL
OCc1c(Cl)nc2ccccn12 | > 27.4 µg/mL
Cc1nc2cc(C(=O)N3CCN(C)CC3)ccc2n1C | 40.2 µg/mL (≈ 148 µM)
O=C(Nc1ccncc1)C1CC(=O)N(Cc2ccccc2)C1 (configuration not stated) | > 44.3 µg/mL
O=C1CN(S(=O)(=O)c2ccccc2C(F)(F)F)CCN1 | 40.3 µg/mL (≈ 131 µM)
CC(=O)c1ccc(S(=O)(=O)Nc2ccc(Cl)c(S(=O)(=O)N3CCCC3)c2)cc1 | > 66.4 µg/mL
O=C(NCc1cccnc1)Nc1cc(Cl)cc(Cl)c1 | 15.2 µg/mL (≈ 51.3 µM)
O=S1(=O)CCN(C(CCO)c2cccc(C(F)(F)F)c2)CC1 (configuration not stated) | > 50.6 µg/mL
O=C(O)C1CC=CCC1C(=O)NCc1ccc(Cl)c(Cl)c1 (configuration not stated) | > 49.2 µg/mL
Cc1ccsc1C(=O)OC(C)C(=O)Nc1ccc(Cl)cn1 (configuration not stated) | 28.6 µg/mL (≈ 88.1 µM)
COc1ccc(OCC(=O)NC2CCSc3ccccc32)cc1 (configuration not stated) | 38.6 µg/mL (≈ 117 µM)
CN1CCCN(S(=O)(=O)c2ccccc2)CC1.Cl | 39.8 µg/mL
CCc1nnc(NC(=O)c2ccc(C)o2)s1 | > 35.6 µg/mL
COc1ccc(C(C)=NNc2ccc([N+](=O)[O-])cc2S(=O)(=O)Nc2ccccc2C(=O)O)c(OC)c1 | > 77.2 µg/mL
CC(=O)c1cccc(N=Cc2c(O)c3ccccc3oc2=O)c1 | 11.2 µg/mL (≈ 36.4 µM)
COC(=O)C(C)Nc1cccc(Br)c1 (configuration not stated) | 21.8 µg/mL (≈ 84.5 µM)
O=C(Nc1ccccc1F)c1ccccc1C(=O)Nc1ccccc1F | 32.5 µg/mL (≈ 92.2 µM)
COc1ccccc1C(=O)OCC(=O)Nc1cccc(S(=O)(=O)NC2=NCCCCC2)c1 | > 68.9 µg/mL
Cc1cc(NC(=O)COc2ccc3ccccc3c2Br)no1 | 14.4 µg/mL (≈ 39.9 µM)
COCn1cnc(-c2ccccc2)c1-c1ccccc1 | 32.5 µg/mL (≈ 123 µM)
Clc1ccc(Cl)c(OCCN2CCCC2)c1 | 25.4 µg/mL (≈ 97.6 µM)

SMILES | solubility kinetic
Cc1ccc(C(=O)N2CCN(c3ccccn3)CC2)cc1Cl | > 47.4 µg/mL
O=c1cc(-c2ccccc2)nc(Cc2c(Cl)cccc2Cl)[nH]1 | < 0.4 µg/mL
Cc1c(C)c(C)c(S(=O)(=O)N2CCSCC2)c(C)c1C | 1.5 µg/mL (≈ 4.78 µM)
O=C(CNC(=O)c1ccco1)Nc1ccc(F)c(Cl)c1 | 2.5 µg/mL (≈ 8.43 µM)
c1ccc(-c2ccccc2OCCN2CCCC2)cc1 | 25 µg/mL (≈ 93.5 µM)
CCOC(=O)c1sc(Nc2cccc(Cl)c2)nc1C | < 0.3 µg/mL
O=C(CNC(=O)c1ccc(-c2ccccc2)cc1)Nc1cccc(CO)c1 | 9.3 µg/mL (≈ 25.8 µM)
Cc1ccc(C(=O)NC2CC(C)(C)NC(C)(C)C2)cc1Cl | 43.6 µg/mL (≈ 141 µM)
CC(C)=NOc1nc(N(C)C)nc(N2CCOCC2)n1 | 41.9 µg/mL (≈ 149 µM)
CCCC1(c2ccccc2)NC(=O)N(CC(=O)Nc2ccc(N3CCOCC3)cc2)C1=O (configuration not stated) | > 65.5 µg/mL
CC(=O)N(C)Cc1ccc(C(=O)CSc2nnc(C3CC3)n2C2CC2)cc1 | > 57.7 µg/mL
O=C(COc1ccc(Cl)cc1)NCCN1CCCCC1 | > 44.5 µg/mL
CCOC(=O)C1CCN(C(=O)Nc2cc(Cl)cc(Cl)c2)CC1 | 20.4 µg/mL (≈ 59.1 µM)
CCOC(=O)C1CCN(S(=O)(=O)c2ccc3c4c(cccc24)C(=O)N3CC)CC1 | 10.4 µg/mL (≈ 25 µM)
OC(CN1CCN(c2cccc(Cl)c2)CC1)c1ccccc1 (configuration not stated) | 16.1 µg/mL (≈ 50.8 µM)
Cc1ccc(NS(=O)(=O)N2CCOCC2)c(C)c1 | > 40.6 µg/mL
O=[N+]([O-])c1ccc(N2CCNCC2)cc1N1CCCCC1 | > 43.6 µg/mL
CCOc1ccc(NC(=O)COC(=O)Cn2nc(C)c([N+](=O)[O-])c2C)cc1OCC | > 63.1 µg/mL
CCOC(=O)c1csc(NC(=O)C2=COCCO2)n1 | > 42.6 µg/mL
N#C/C(=C\C=C\c1ccccc1)C(=O)NCc1cccnc1 | 6.3 µg/mL (≈ 21.8 µM)

Further lines, results first:

solubility kinetic | SMILES
28.7 µg/mL (≈ 78.8 µM) | O=C(NCC(c1ccco1)N1CCc2ccccc2C1)c1cccc(F)c1 (configuration not stated)
> 39.2 µg/mL | Oc1[nH]c(=S)sc1C=C1N=c2ccccc2=N1
> 49.8 µg/mL | CN1C(C(=O)Nc2ncccn2)=C(O)c2ccccc2S1(=O)=O
> 49.3 µg/mL | CC1CCc2[nH]c3ccc(C(=O)NCCCOC(C)C)cc3c2C1 (configuration not stated)
> 47.6 µg/mL | CC(C)(C)c1ccc(C(=O)NCC(=O)N2CCNC(=O)C2)cc1
2.6 µg/mL (≈ 6.58 µM) | COc1c(Cl)cc(Cl)cc1C(=O)Nc1ccc(CN2CCOCC2)cc1
19 µg/mL (≈ 56.6 µM) | COc1ccc(OC)c(NC(=O)COC(=O)CC2CCCCC2)c1
18 µg/mL (≈ 48.6 µM) | CCOC(=O)C1CCCN(c2c(NCCc3cccc(C)c3)c(=O)c2=O)C1 (configuration not stated)
16.4 µg/mL (≈ 53.4 µM) | S=C(Nc1ccccc1)Nc1ccccc1Br
> 40.2 µg/mL | Cc1ccc(C(=O)Nc2cc(C)nn2CCC#N)cc1
> 42.9 µg/mL | C/C(=N/NC(=O)CNC(=O)c1cccnc1)c1ccco1
> 68.3 µg/mL | COc1cc(C(=O)NCC(=O)Nc2c(C)cccc2C)ccc1OCC(=O)N1CCOCC1
> 54.3 µg/mL | O=C(CSc1nnc2ccccn12)NNC(=O)c1cccc(Cl)c1
13.8 µg/mL (≈ 36.3 µM) | COc1ccc(NC(=O)CN2C(=O)NC3(CCCCCC3)C2=O)cc1Cl
> 37.4 µg/mL | CCCN1CNC(=S)N(c2ccccc2C)C1
39.2 µg/mL (≈ 131 µM) | COc1cccc2c1SCc1ccccc1C2CC(N)=O (configuration not stated)
< 0.2 µg/mL | COc1ccc(NC(=O)c2sc3nc(C)cc(C)c3c2N)cc1
> 51.3 µg/mL | O=C(NCc1ccco1)c1ccc(COc2ccccc2[N+](=O)[O-])o1
12.7 µg/mL (≈ 22.9 µM) | Cc1cc(C)c(C)c(S(=O)(=O)N2CCN(C(=O)c3cc(S(=O)(=O)N4CCOCC4)ccc3F)CC2)c1C
> 39 µg/mL | CC1Oc2ccccc2N(CC(=O)NC2CC2)C1=O (configuration not stated)
12.8 µg/mL (≈ 39.9 µM) | N/C(=N\OC(=O)c1ccc([N+](=O)[O-])cc1Cl)c1ccccn1
44.7 µg/mL (≈ 134 µM) | O=C1NC2(CCCCC2)C(=O)N1Cc1cc(=O)n2ccsc2n1
4 µg/mL (≈ 11.7 µM) | CCOc1ccc(NC(=O)COC(=O)c2ccc3c(c2)OCO3)cc1
9.6 µg/mL (≈ 29.4 µM) | O=S(=O)(c1cccs1)N1CCN(c2ccc(F)cc2)CC1
7.3 µg/mL (≈ 22.9 µM) | COc1ccc(NC(=O)CSc2ccccn2)c([N+](=O)[O-])c1
> 41.6 µg/mL | O=C(O)CCN1c2cccc3cccc(c23)S1(=O)=O
29.6 µg/mL (≈ 84.9 µM) | COc1ccc2c(c1)c(C(=O)CN1CCc3ccccc3C1)c(C)n2C
50.7 µg/mL | CC(C)COc1ccc(Br)cc1CNC(C)(C)C.Cl

solubility kinetic | SMILES
> 41.9 µg/mL | Cc1nc(SCC(=O)N2CCCC2=O)nc(C)c1C
> 40.4 µg/mL | Cc1cc(C)n(/C(=C/N(C)C)C(=O)c2ccccc2)n1
> 46.6 µg/mL | O=C(COC(=O)c1cccnc1Cl)NC1CCCCCC1
11.6 µg/mL (≈ 32.6 µM) | Fc1ccc(C2CCCN2Cc2nc(Cc3ccccc3F)no2)cc1 (configuration not stated)
< 0.2 µg/mL | COc1ccc(Nc2nc3c(C)cccn3c(=O)c2C=O)cc1
42.2 µg/mL (≈ 116 µM) | CC(OC(=O)CSc1ccc(F)cc1)C(=O)NC1(C#N)CCCCC1 (configuration not stated)
< 0.1 µg/mL | Nc1c([N+](=O)[O-])cc(-c2cnc[nH]2)cc1[N+](=O)[O-]
40.7 µg/mL (≈ 110 µM) | Cc1ccccc1N1CCN(CCCN2C(=O)C3CCCCN3C2=O)CC1 (configuration not stated)
33.1 µg/mL (≈ 90.5 µM) | COc1cccc(NC(=O)C2(S(=O)(=O)c3ccc(Cl)cc3)CC2)c1
> 49.4 µg/mL | CN(C)C(=O)CSc1ccc(S(=O)(=O)N2CCCC2)cn1
> 45.7 µg/mL | CCOC(=O)CC1C(=O)NCCN1C(=O)c1ccc(C)cc1 (configuration not stated)
13.8 µg/mL (≈ 51.9 µM) | O=C(Nc1ccc(F)cc1)Nc1cccnc1Cl
4.1 µg/mL (≈ 9.59 µM) | O=C(CSc1nc2ccccc2c(=O)n1Cc1ccc(F)cc1)NCC1CCCO1 (configuration not stated)
< 0.7 µg/mL | O=C1/C(=C\c2ccc(O)cc2)SC(=S)N1Cc1ccccc1
15.6 µg/mL (≈ 46.3 µM) | CSc1ccccc1C(=O)OCC(=O)Nc1cccnc1Cl
> 29.6 µg/mL | C=CCC1(/C=N/O)CCOC(C)(C)C1 (configuration not stated)
> 48.2 µg/mL | COc1ccccc1C(=O)NC(C)c1ccc(-n2ccnc2)cc1 (configuration not stated)
4.1 µg/mL (≈ 10.5 µM) | O=C(Nc1ccccc1F)c1ccc(CN2CCN(c3ccccc3)CC2)cc1
2.2 µg/mL (≈ 8.05 µM) | O=C(Nc1ccccc1O)c1csc2c1CCCC2
0.8 µg/mL (≈ 2.36 µM) | O=C(Nc1ccc(O)cc1)c1ccc(NC(=O)c2cccs2)cc1
> 43.3 µg/mL | CC1CCC(NC(=O)CCNC(=O)c2ccccc2)CC1 (configuration not stated)
> 53.9 µg/mL | Cc1nc(SC(C)C(=O)NCc2ccc3c(c2)OCO3)nc(C)c1C (configuration not stated)
> 40.8 µg/mL | O=C(CSc1ccccc1Cl)N1CCOCC1
3.3 µg/mL (≈ 11.1 µM) | Cc1cccc(OCCCn2c(=O)oc3ccc(C)cc32)c1
> 46.6 µg/mL | C/C(CC(=O)Nc1ccccn1)=N\NC(=O)c1cccc(C)c1
1.2 µg/mL (≈ 3.47 µM) | CC1CN(c2ccc(Cl)cc2)c2nc3c(c(=O)[nH]c(=O)n3C)n2C1 (configuration not stated)
0.6 µg/mL (≈ 1.73 µM) | Cc1cccc(NC(=O)Cn2cc(C(=O)C3CC3)c3ccccc32)c1C
